From patent publication US12234223B2, “Phthalazinone compound, and preparation method therefor and medical use thereof” (SHANGHAI JEMINCARE PHARMACEUTICALS CO., LTD, priority 2020, dated 2025)

How the values were obtained:
Androgen receptor = target: T1, Androgen receptor (Homo sapiens, UniProt P10275); assay: Androgen receptor In-Cell-Western assay (AR degradation in VCaP cells); assay type: cell-based; details: 24 hours treatment; for DC50: concentration for half the maximum degradation degree of AR in VCaP cells; for Dmax: maximum degradation degree of AR in VCaP cells
T1 construct: Dmax: a maximum degradation degree of AR in VCaP cells; endogenous in cells; host or cells: VCaP cells
T1 sequence (P10275 1-920): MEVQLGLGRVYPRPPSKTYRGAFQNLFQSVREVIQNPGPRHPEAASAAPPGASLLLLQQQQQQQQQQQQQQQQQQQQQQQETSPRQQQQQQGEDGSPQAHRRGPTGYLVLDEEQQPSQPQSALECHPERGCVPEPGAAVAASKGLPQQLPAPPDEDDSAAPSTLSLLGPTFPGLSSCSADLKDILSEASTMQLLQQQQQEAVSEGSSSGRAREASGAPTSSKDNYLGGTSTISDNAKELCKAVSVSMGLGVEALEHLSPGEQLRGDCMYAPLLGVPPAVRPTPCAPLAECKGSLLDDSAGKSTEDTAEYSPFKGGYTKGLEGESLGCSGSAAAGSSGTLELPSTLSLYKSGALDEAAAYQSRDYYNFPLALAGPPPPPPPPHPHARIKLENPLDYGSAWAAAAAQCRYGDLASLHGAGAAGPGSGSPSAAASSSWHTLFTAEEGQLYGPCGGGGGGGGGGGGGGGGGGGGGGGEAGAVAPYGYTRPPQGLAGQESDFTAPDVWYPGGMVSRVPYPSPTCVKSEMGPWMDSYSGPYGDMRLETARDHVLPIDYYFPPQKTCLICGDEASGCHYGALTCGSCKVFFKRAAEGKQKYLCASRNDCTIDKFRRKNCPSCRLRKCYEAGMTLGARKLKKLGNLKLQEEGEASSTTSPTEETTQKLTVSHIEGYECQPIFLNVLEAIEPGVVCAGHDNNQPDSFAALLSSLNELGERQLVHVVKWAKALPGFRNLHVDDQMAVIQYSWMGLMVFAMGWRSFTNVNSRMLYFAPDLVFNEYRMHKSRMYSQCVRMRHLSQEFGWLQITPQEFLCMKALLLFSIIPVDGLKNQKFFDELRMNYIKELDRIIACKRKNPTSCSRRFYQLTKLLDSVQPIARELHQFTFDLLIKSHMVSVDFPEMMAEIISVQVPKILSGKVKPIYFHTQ
Protocol: This assay evaluated compound performance in VCap cells. An intracellular androgen receptor was assayed by In-Cell-Western according to the assay procedure described below.
In a 96-well cell culture plate (Corning 3599) pretreated by poly-D-Lysin, Vcap cells were seeded to a Vcap cell assay medium [phenol red containing DMEM (Gibco Cat. No.: 11995065); fetal bovine serum FBS (Gibco Cat. No.: 10099141C)] at a volume of 100 μL/well and a cell density of 50,000 cells/well. Cells were cultured for at least two days. • 1. First, cells were treated with a compound. The compound was subjected to a gradient dilution by using DMSO and a cell culture medium, so that DMSO contained in the cell culture plate was diluted to 0.5%: a polypropylene plate was used according to the following protocol: • (1) (i) A 200× stock solution plate was prepared in DMSO; (ii) a 10 mM stock solution was diluted at 1:4 (10 μL stock solution+40 μL DMSO=2000 uM) with DMSO to enter row 2; (iii) a 1:4 (10 μL protac+40 μL DMSO) gradient dilution was performed from row 2 to row 9, row 1 was reserved for a 2000 uM reference compound and row 10 was reserved for DMSO. (iv) There were 8 concentrations (the final concentrations on the 200× plate was 2000 uM, 400 uM, 80 uM, etc.) in total. (2) (i) A 3× stock solution was prepared in the medium; (ii) 3 μL of the 200× stock solution was transferred to 197 μL of the medium (by a 12-channel pipette, from row 1 to row 10), i.e. a 3× stock solution plate. (iii) Uniform mixing was performed for the stock solution plate. (3) (i) The medium of Vcap cells was replaced with a fresh medium, with the medium volume of 100 μL. (ii) The uniformly-mixed 3× stock solution was transferred to the cell culture plate (by the 12-channel pipette, 50 μL of the stock solution was transferred from row 1 to row 10). (iii) The cells were cultured for 24 hours. • 2. The expression level of the intracellular androgen receptor after compound treatment was detected, and assay was performed according to the following method. • (1) (i) An equal volume of 8% paraformaldehyde was added to the cell culture plate for cell fixation. A fixative solution in the cell plate was discarded, and the cell plate was washed three times with PBS. (ii) A Triton solution was prepared (the stock solution was diluted at 1:1000). The solution in the cell plate was discarded, and a volume of 200 μL of a Triton diluent was added to each well. (iii) A 2× blocking solution was prepared (a 10× blocking stock solution was diluted at 1:4). The solution in the cell plate was discarded, and a volume of 100 μL of the 2× blocking solution was added to each well. (iv) A primary antibody solution (Androgen receptor Rabbit mAb, Cell Signaling Technology Cat. No.: 5153; 1:1000 dilution) was prepared. The solution in the cell plate was discarded, a volume of 100 μL of a primary antibody diluent was added to each well, and incubation was performed at 4 degrees overnight. (v) The primary antibody solution was discarded, and the cell plate was washed with 1× Wash buffer (Wash buffer in the present application means a washing buffer solution). (vi) A secondary antibody solution (Goat anti Rabbit IgG (H+L) Secondary Antibody, HRP, Thermo Cat. No.: 31460; 1:5000 dilution) was prepared, and a volume of 100 μL of a secondary antibody diluent was added to each well for incubation. (vii) The secondary antibody solution in the cell plate was discarded, and the cell plate was washed with 1× Wash buffer. (viii) A TMB chromogenic solution (BD Cat. No.: 550534) was prepared, and a volume of 100 μL of the chromogenic solution was added to each well. (ix) A volume of 50 μL of a stop solution (BD Cat. No.: 550534) was added to each well. (x) Absorption values at OD 450 nm and 570 nm were read by EnVision. (2) (i) Normalized analysis was performed for the number of cells in each well. The solution in the cell plate was discarded, and the cell plate was washed three times with wash buffer. […]

VCaP cells = assay: Inhibitory effect on VCaP cell proliferation (Cell Titer Glo); assay type: cell-based; details: Homo sapiens, 144 h; for IC50: VCaP cells, 5% FBS and 0.1 nM R1881, 6 days; for Emax: maximum degree of VCaP cell proliferation inhibition, 6 days
Protocol: A tumor cell line Vcap (ATCC Cat. No. CRL-2876) was respectively cultured with DMEM (Gibco Cat. No. 11965-092) medium containing 10% FBS (Gibco Cat. No. 10099-141C). During testing, Vcap cells were replaced with a DMEM culture fluid containing 5% FBS and 0.1 nM R1881 (Sigma Cat. No. R0908). The assay method was as follows:
Vcap cells were seeded to a 384-well plate (Perkin Elmer Cat. No. 6007460) at a cell density of 1200 cells/well and a volume of 20 μL/well; after the cells were incubated overnight in a carbon dioxide incubator (Thermo), the prepared compound solutions with different concentrations were added at a volume of 5 μL/well; meanwhile, a corresponding solvent was provided as a control; after the cells were continuously incubated in the incubator for 6 days, the cell plate and the contents thereof were equilibrated to room temperature; 25 μL of a Cell Titer Glor (Promega Cat. No. G7573) reagent was added to each well; after vibration and uniform mixing, incubation in the dark was performed for 10-30 minutes, and a signal value was detected with Envision microplate reader (PerkinElmer).
A percentage inhibition rate of compound-treated wells was calculated through solvent control wells on the plate, GraphPad prism was used to fit the percentage inhibition rate data corresponding to different concentrations, and IC50 value was calculated by a 4-parameter nonlinear logistic formula.
Emax: a maximum degree of VCaP cell proliferation inhibition. IC50: a compound concentration required to achieve half the maximum degree of VCaP cell proliferation inhibition.

| SMILES | DC50 (Androgen receptor) [nM] | Dmax (Androgen receptor) [%] | IC50 (VCaP cells) [nM] | Emax (VCaP cells) [%] |
| --- | --- | --- | --- | --- |
| CC1(C)[C@H](NC(=O)c2cnc(N3CCC(CCN4CCN(c5ccc6c(=O)n(C7CCC(=O)NC7=O)ncc6c5)CC4)CC3)nc2)C(C)(C)[C@H]1Oc1ccc(C#N)c(Cl)c1 (some centres unmarked) [Compound 24] | 6.8 | 106 | 18 | 53 |
| CC1(C)[C@H](NC(=O)c2cnc(N3CCC(CN4CCN(c5ccc6c(=O)n(C7CCC(=O)NC7=O)ncc6c5)CC4)CC3)c(F)c2)C(C)(C)[C@H]1Oc1ccc(C#N)c(Cl)c1 (some centres unmarked) [Compound 26] | 32 | 109 | 45 | 60 |
| CC1(C)[C@H](NC(=O)c2cnc(N3CCC(CN4CCN(c5ccc6c(=O)n(C7CCC(=O)NC7=O)ncc6c5)CC4)CC3)nc2)C(C)(C)[C@H]1Oc1ccc(C#N)c(Cl)c1 (some centres unmarked) [Compound 2] | 5.3 | 114 | 11 | 60 |
| CC1(C)[C@H](NC(=O)c2ccc(N3CCC(CN4CC5CC4CN5c4ccc5c(=O)n(C6CCC(=O)NC6=O)ncc5c4)CC3)cc2)C(C)(C)[C@H]1Oc1ccc(C#N)c(Cl)c1 (some centres unmarked) [Compound 17] | 6.9 | 88 |  |  |
| CC1(C)[C@H](NC(=O)c2ccc(N3CCC(CN4CCN(c5ccc6c(=O)n(C7CCC(=O)NC7=O)ncc6c5)CC4)C3)cc2)C(C)(C)[C@H]1Oc1ccc(C#N)c(Cl)c1 (some centres unmarked) [Compound 16] | 5.7 | 92 |  |  |
| CC1(C)[C@H](NC(=O)c2ccc(N3CCC(CN4CCN(c5ccc6c(=O)n([C@@H]7CCC(=O)NC7=O)ncc6c5)CC4)CC3)cc2)C(C)(C)[C@H]1Oc1ccc(C#N)c(Cl)c1 [Compound 28B] | 7.2 | 101 | 33 | 71 |
| N#Cc1ccc(O[C@H]2CC[C@H](NC(=O)c3cnc(N4CCC(CN5CCN(c6ccc7c(=O)n(C8CCC(=O)NC8=O)ncc7c6)CC5)CC4)nc3)CC2)cc1Cl (some centres unmarked) [Compound 14] | 11 | 91 | 20 | 61 |
| CC1(C)[C@H](NC(=O)c2cnc(N3CCC(CN4CCN(c5ccc6c(=O)n(C7CCC(=O)NC7=O)ncc6c5)CC4)CC3)cn2)C(C)(C)[C@H]1Oc1ccc(C#N)c(Cl)c1 (some centres unmarked) [Compound 10] | 35 | 87 |  |  |
| CC1(C)[C@H](NC(=O)c2ccc(N3CCC(CN4CCN(c5ccc6c(=O)n(C7CCC(=O)NC7=O)nc(C(F)(F)F)c6c5)CC4)CC3)cc2)C(C)(C)[C@H]1Oc1ccc(C#N)c(Cl)c1 (some centres unmarked) [Compound 32] | 5.2 | 145 |  |  |
| CC1(C)[C@H](NC(=O)c2cnc(N3CCC(CCN4CCN(c5ccc6c(=O)n(C7CCC(=O)NC7=O)ncc6c5)CC4)C3)nc2)C(C)(C)[C@H]1Oc1ccc(C#N)c(Cl)c1 (some centres unmarked) [Compound 23] | 6.9 | 98 | 20 | 56 |
| CC1(C)[C@H](NC(=O)c2ccc(N3CCC(CN4CCN(c5ccc6c(=O)n(C7CCC(=O)NC7=O)ncc6c5)CC4)CC3)nc2)C(C)(C)[C@H]1Oc1ccc(C#N)c(Cl)c1 (some centres unmarked) [Compound 4] | 6.8 | 98 | 33 | 69 |
| N#Cc1ccc(O[C@H]2CC[C@H](NC(=O)c3ccc(N4CC(CN5CCN(c6ccc7c(=O)n(C8CCC(=O)NC8=O)ncc7c6)CC5)C4)cc3)CC2)cc1Cl (some centres unmarked) [Compound 15] | 16 | 84 |  |  |
| N#Cc1ccc(O[C@H]2CC[C@H](NC(=O)c3ccc(N4CCC(CN5CCN(c6ccc7c(=O)n(C8CCC(=O)NC8=O)ncc7c6)CC5)CC4)cc3)CC2)cc1Cl (some centres unmarked) [Compound 13] | 9.6 | 94 |  |  |
| CC1(C)[C@H](NC(=O)c2ccc(N3CCC(CN4CCN(c5ccc6c(=O)n(C7CCC(=O)NC7=O)ncc6c5)CC4)CC3)cc2)C(C)(C)[C@H]1Oc1ccc(C#N)c(C(F)(F)F)c1 (some centres unmarked) [Compound 3] | 12 | 104 |  |  |
| CC1(C)C(NC(=O)c2ccc(N3CCC(CN4CCN(c5ccc6c(=O)n(C7CCC(=O)NC7=O)ncc6c5)CC4)CC3)nn2)C(C)(C)C1Oc1ccc(C#N)c(Cl)c1 (centres unmarked) [Compound 8] | 8.9 | 75 |  |  |
| Cc1cc(O[C@H]2C(C)(C)[C@H](NC(=O)c3ccc(N4CCC(CN5CCN(c6ccc7c(=O)n(C8CCC(=O)NC8=O)ncc7c6)CC5)CC4)cc3)C2(C)C)ccc1C#N (some centres unmarked) [Compound 7] | 15 | 92 |  |  |
| CC1(C)[C@H](NC(=O)c2ccc(N3CC(CN4CCN(c5ccc6c(=O)n(C7CCC(=O)NC7=O)ncc6c5)CC4)C3)cc2)C(C)(C)[C@H]1Oc1ccc(C#N)c(Cl)c1 (some centres unmarked) [Compound 20] |  |  | 42 | 60 |
| CC1(C)[C@H](NC(=O)c2ccc(N3CCC(CN4CCN(c5ccc6cnn(C7CCC(=O)NC7=O)c(=O)c6c5)CC4)CC3)cc2)C(C)(C)[C@H]1Oc1ccc(C#N)c(Cl)c1 (some centres unmarked) [Compound 11] | 38 | 80 |  |  |
